Experimental data as given in patent publication US8609653B2, “Azaindole compounds and methods for treating HIV” (priority 2011, dated 2013).
Counter-ions that a name gives are not always drawn.

System: HIV
Assay: MT4 assay: antiviral HIV activity in MT-4 cells
Assay type: cell-based
Conditions: Human immunodeficiency virus 1, MT4, 96 h, read-out: HIV MT4 Assay IC50 (μM), HTLV-1 transformed cell line MT-4; read-out 96 hours later with cell titer glo; 10 point dose response
In short: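 Compounds tested in HTLV-1-transformed MT-4 cells for protection from HIV, with cytotoxicity run in parallel under the same conditions; CellTiter-Glo luminescence read 96 h later. IC50 from 10-point, 3–4-fold serial dilutions spanning >1000-fold, % inhibition relative to no-compound control, fitted by four-parameter logistic.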

Row | Structure (SMILES) | IC50
1 | Cc1ccc(-c2c(C(OC(C)(C)C)C(=O)O)c(C)nc3c2ccn3Cc2cc(F)cc(F)c2)cc1 (centres unmarked) [Example 78, 2-(tert-Butoxy)-2-(1-(3,5-difluorobenzyl)-6-methyl-4-(p-tolyl)-1H-pyrrolo[2,3-b]pyridin-5-yl)acetic acid] | 0.35 µM
2 | Cc1ccc(-c2c(C(OC(C)(C)C)C(=O)O)c(C)nc3c2ccn3CCOCc2ccccc2)cc1 (centres unmarked) [Example 79, 2-(1-(2-(benzyloxy)ethyl)-6-methyl-4-(p-tolyl)-1H-pyrrolo[2,3-b]pyridin-5-yl)-2-(tert-butoxy)acetic acid] | 4.87 µM
3 | Cc1ccc(-c2c(C(OC(C)(C)C)C(=O)O)c(C)nc3c2ccn3Cc2ccc3c(c2)OCO3)cc1 (centres unmarked) [Example 80, 2-(1-(Benzo[d][1,3]dioxol-5-ylmethyl)-6-methyl-4-(p-tolyl)-1H-pyrrolo[2,3-b]pyridin-5-yl)-2-(tert-butoxy)acetic acid] | 0.8 µM
4 | Cc1nc2c(ccn2[C@H](C)c2ccc(F)cc2)c(-c2ccc3c(c2)CCCO3)c1C(OC(C)(C)C)C(=O)O (some centres unmarked) [Example 81] | 0.03 µM
5 | Cc1nc2c(ccn2C2(c3ccc(F)cc3)CC2)c(-c2ccc3c(c2)CCCO3)c1C(OC(C)(C)C)C(=O)O (centres unmarked) [Example 82, 2-(tert-butoxy)-2-(4-(chroman-6-yl)-1-(1-(4-fluorophenyl)cyclopropyl)-6-methyl-1H-pyrrolo[2,3-b]pyridin-5-yl)acetic acid] | 0.3 µM
6 | Cc1nc2c(ccn2[C@@H](C)c2ccc(F)cc2)c(-c2ccc3c(c2)CCCO3)c1C(OC(C)(C)C)C(=O)O (some centres unmarked) [Example 83] | 0.123 µM
7 | Cc1nc2c(ccn2[C@@H](C)c2ccc(F)cc2)c(-c2ccc3c(c2)CCCO3)c1[C@@H](OC(C)(C)C)C(=O)O [Example 84, (R)-2-(tert-butoxy)-2-(4-(chroman-6-yl)-1-((S)-1-(4-fluorophenyl)ethyl)-6-methyl-1H-pyrrolo[2,3-b]pyridin-5-yl)acetic acid] | 0.124 µM
8 | Cc1nc2c(ccn2[C@@H](C)c2ccc(F)cc2)c(-c2ccc3c(c2)CCCO3)c1[C@H](OC(C)(C)C)C(=O)O [Example 85, (S)-2-(tert-butoxy)-2-(4-(chroman-6-yl)-1-((S)-1-(4-fluorophenyl)ethyl)-6-methyl-1H-pyrrolo[2,3-b]pyridin-5-yl)acetic acid] | 0.955 µM
9 | Cc1nc2c(ccn2Cc2cccc(F)c2F)c(-c2ccc3c(c2)CCCO3)c1[C@@H](OC(C)(C)C)C(=O)O [Example 86, (R)-2-(tert-butoxy)-2-(4-(chroman-6-yl)-1-(2,3-difluorobenzyl)-6-methyl-1H-pyrrolo[2,3-b]pyridin-5-yl)acetic acid] | 50 µM
10 | Cc1ccc(-c2c([C@H](OC(C)(C)C)C(=O)O)c(C)nc3c2ccn3Cc2ccccc2F)cc1 [Example 88, (S)-2-(tert-butoxy)-2-(1-(2-fluorobenzyl)-6-methyl-4-(p-tolyl)-1H-pyrrolo[2,3-b]pyridin-5-yl)acetic acid] | 0.107 µM
11 | Cc1nc2c(ccn2Cc2ccc(F)cc2Cl)c(-c2ccc(Cl)cc2)c1[C@H](OC(C)(C)C)C(=O)O [Example 89, (S)-2-(tert-butoxy)-2-(1-(2-chloro-4-fluorobenzyl)-4-(4-chlorophenyl)-6-methyl-1H-pyrrolo[2,3-b]pyridin-5-yl)acetic acid] | 0.065 µM
12 | Cc1nc2c(ccn2Cc2ccc(F)cc2)c(-c2ccc(Cl)cc2F)c1C(OC(C)(C)C)C(=O)O (centres unmarked) [Example 90, 2-(tert-Butoxy)-2-(4-(4-chloro-2-fluorophenyl)-1-(4-fluorobenzyl)-6-methyl-1H-pyrrolo[2,3-b]pyridin-5-yl)acetic acid] | 0.48 µM
13 | Cc1nc2c(ccn2Cc2ccc(F)cc2)c(-c2ccccc2F)c1C(OC(C)(C)C)C(=O)O (centres unmarked) [Example 91, 2-(tert-Butoxy)-2-(1-(4-fluorobenzyl)-4-(2-fluorophenyl)-6-methyl-1H-pyrrolo[2,3-b]pyridin-5-yl)acetic acid] | 0.168 µM
14 | COc1c(C)cc(-c2c(C(OC(C)(C)C)C(=O)O)c(C)nc3c2ccn3Cc2ccc(F)cc2)cc1C (centres unmarked) [Example 92, 2-(tert-Butoxy)-2-(1-(4-fluorobenzyl)-4-(4-methoxy-3,5-dimethylphenyl)-6-methyl-1H-pyrrolo[2,3-b]pyridin-5-yl)acetic acid] | 0.98 µM
15 | Cc1ccc(-c2c(C(OC(C)(C)C)C(=O)O)c(C)nc3c2ccn3Cc2ccc(F)cc2)c(F)c1 (centres unmarked) [Example 93, 2-(tert-Butoxy)-2-(4-(2-fluoro-4-methylphenyl)-1-(4-fluorobenzyl)-6-methyl-1H-pyrrolo[2,3-b]pyridin-5-yl)acetic acid] | 0.046 µM
16 | Cc1cc(Cl)ccc1-c1c(C(OC(C)(C)C)C(=O)O)c(C)nc2c1ccn2Cc1ccc(F)cc1 (centres unmarked) [Example 94, 2-(tert-Butoxy)-2-(4-(4-chloro-2-methylphenyl)-1-(4-fluorobenzyl)-6-methyl-1H-pyrrolo[2,3-b]pyridin-5-yl)acetic acid, Trifluoroacetic acid salt] | 0.11 µM
17 | Cc1nc2c(ccn2Cc2ccc(F)c(F)c2)c(-c2ccc(F)cc2)c1[C@H](OC(C)(C)C)C(=O)O [Example 102, (S)-2-(tert-Butoxy)-2-(1-(3,4-difluorobenzyl)-4-(4-fluorophenyl)-6-methyl-1H-pyrrolo[2,3-b]193pyridine-5-yl)acetic acid] | 0.367 µM
18 | COc1ccc(-c2c([C@H](OC(C)(C)C)C(=O)O)c(C)nc3c2ccn3Cc2ccc(F)c(F)c2)cc1C [Example 103, (S)-2-(tert-Butoxy)-2-(1-(3,4-difluorobenzyl)-4-(4-methoxy-3-methylphenyl)-6-methyl-1H-pyrrolo[2,3-b]pyridin-5-yl)acetic acid] | 0.81 µM
19 | Cc1nc2c(ccn2Cc2ccc(F)c(F)c2)c(-c2ccc(F)c(Cl)c2)c1[C@H](OC(C)(C)C)C(=O)O [Example 105, (S)-2-(tert-Butoxy)-2-(4-(3-chloro-4-fluorophenyl)-1-(3,4-difluorobenzyl)-6-methyl-1H-pyrrolo[2,3-b]pyridin-5-yl)acetic acid] | 1.42 µM
20 | Cc1nc2c(ccn2Cc2ccc(F)c(F)c2)c(-c2ccc(Cl)c(F)c2)c1[C@H](OC(C)(C)C)C(=O)O [Example 106, (S)-2-(tert-Butoxy)-2-(4-(4-chloro-3-fluorophenyl)-1-(3,4-difluorobenzyl)-6-methyl-1H-pyrrolo[2,3-b]pyridin-5-yl)acetic acid] | 0.1 µM
21 | Cc1nc2c(c(-c3ccc4c(c3C)CCCO4)c1[C@H](OC(C)(C)C)C(=O)O)CCN2Cc1ccc(F)c(F)c1 [Example 107, (2S)(M)-2-(tert-Butoxy)-2-(1-(3,4-difluorobenzyl)-6-methyl-4-(5-methylchroman-6-yl)-2,3-dihydro-1H-pyrrolo[2,3-b]pyridin-5-yl)acetic acid, Trifluoroacetic acid salt] | 0.008 µM
22 | Cc1nc2c(ccn2Cc2ccc(F)c(F)c2)c(-c2ccc3c(c2)CCO3)c1[C@H](OC(C)(C)C)C(=O)O [Example 112, (S)-2-(tert-butoxy)-2-(1-(3,4-difluorobenzyl)-4-(2,3-dihydrobenzofuran-5-yl)-6-methyl-1H-pyrrolo[2,3-b]pyridin-5-yl)acetic acid] | 0.011 µM
23 | Cc1nc2c(ccn2Cc2ccc(F)c(F)c2)c(C2=CCC(C)(C)CC2)c1[C@H](OC(C)(C)C)C(=O)O [Example 114, (S)-2-(tert-butoxy)-2-(1-(3,4-difluorobenzyl)-4-(4,4-dimethylcyclohex-1-en-1-yl)-6-methyl-1H-pyrrolo[2,3-b]pyridin-5-yl)acetic acid] | 0.08 µM
